Where two headings read alike, the source gives them in different places. Values belong to the compound of their own block, whether it stands above or below them.
Key:
[1] = tested on: sound-susceptible mice (audiogenic seizures, clonic convulsions); assay: Audiogenic seizure test in sound-susceptible mice; assay type: in vivo; conditions: for ED50: Mus musculus
Excerpt: The objective of this test is to evaluate the anticonvulsant potency of a compound in sound-susceptible mice, a genetic animal model with reflex seizures. In this model of primary generalised epilepsy, seizures are evoked without electrical or chemical stimulation and the seizure types are, at least in part, similar in their clinical phenomenology to seizures occurring in man (Löscher W. & Schmidt D., Epilepsy Res. (1998), 2, 145-181: Buchhalter J. R , Epilepsia (1993), 34, S31-S41).
Male or female genetically sound-sensitive mice (14-28 g; N=10), derived from a DBA strain originally selected by Dr. Lehmann of the Laboratory of Acoustic Physiology (Paris) and bred in the UCB Pharma Sector husbandry unit since 1978, were used. The experimental design consisted of several groups, one group receiving the vehicle control and the other groups different doses of the test-compound. The compounds were administered intraperitoneally 60 minutes before the induction of audiogenic seizures.
For testing, the animals were placed in small cages, one mouse per cage, in a sound-attenuated chamber. After a period of orientation of 30 seconds, the acoustic stimulus (90 dB, 10-20 kHz) was delivered for 30 seconds via loudspeakers positioned above each cage. During this interval, the mice were observed and the presence of the 3 phases of the seizure activity namely wild running, clonic and tonic convulsions, was recorded. The proportion of mice protected against wild running, clonic and tonic convulsions, respectively, was calculated.
For active compounds, an ED50 value, i.e. the dose (expressed in moles per kg of test animal) producing 50% protection relative to the control group, together with 95% confidence limits, was calculated using a Probit Analysis (SAS/STAT® Software, version 6.09, PROBIT procedure) of the proportions of protected mice for each of the 3 phases of the seizure activity.
In tables I-A and I-B the ED50 value (=AUD CC) for the inhibition of Clonic Convulsions in the Audiogenic seizure test are given. This test is a good animal model for the screening of anticonvulsant and/or antiepileptic compounds.

[2] = target: T1, Levetiracetam Binding Site (LBS) (Rattus norvegicus, UniProt Q02563); assay: Competitive binding to levetiracetam binding site (LBS), radioligand [3H]-2-[4-(3-azidophenyl)-2-oxo-1-pyrrolidinyl]butanamide, cerebral cortex membranes
T1 construct: from tissue; host or cells: rat cerebral cortex crude membranes (male Sprague-Dawley)
Method: The inhibition constant (Ki) of a compound is determined in competitive binding experiments by measuring the binding of a single concentration of a radioactive ligand at equilibrium with various concentrations of the unlabeled test substance. The concentration of the test substance inhibiting 50% of the specific binding of the radioligand is called the IC50. The equilibrium dissociation constant Ki is proportional to the IC50 and is calculated using the equation of Cheng and Prusoff (Cheng Y. et al., Biochem. Pharmacol. (1972), 22, 3099-3108).
The concentration range usually encompasses 6 log units with variable steps (0.3 to 1 log). Assays are performed in mono- or duplicate, each Ki determination is performed on two different samples of test substance. Cerebral cortex from 200-250 g male Sprague-Dawley rats were homogenised using a Potter S homogeniser (10 strokes at 1,000 rpm; Braun, Germany) in 20 mmol/l Tris-HCl (pH 7.4), 250 mmol/l sucrose (buffer A); all operations were performed at 4° C. The homogenate was centrifuged at 30,000 g for 15 min. The crude membrane pellet obtained was resuspended in 50 mmol/1 Tris-HCl (pH 7.4), (buffer B) and incubated 15 min at 37° C., centrifuged at 30,000 g for 15 min and washed twice with the same buffer. The final pellet was resuspended in buffer A at a protein concentration ranging from 15 to 25 mg/ml and stored in liquid nitrogen.
Membranes (150-200 μg of protein/assay) are incubated at 4° C. for 120 min in 0.5 ml of a 50 mmol/l Tris-HCl buffer (pH 7.4) containing 2 mmol/l MgCl2, 1 to 2.10^−9 mol/l of [^3H]-2-[4-(3-azidophenyl)-2-oxo-1-pyrrolidinyl]butanamide (levetiracetam analog, a tritiated radioligand currently used for the labelling of LBS), and increasing concentrations of the test substance. The non specific binding (NSB) is defined as the residual binding observed in the presence of a concentration of reference substance (e.g. 10^−3 mol/l levetiracetam) that binds essentially all the receptors. Membrane-bound and free radioligands are separated by rapid filtration through glass fiber filters (equivalent to Whatman GF/C or GF/B; VEL, Belgium) pre-soaked in 0.1% polyethyleneimine and 10^−3 mol/l levetiracetam to reduce non specific binding. Samples and filters are rinsed by at least 6 ml of 50 mmol/l Tris-HCl (pH 7.4) buffer. […] The radioactivity trapped onto the filters is counted by liquid scintillation in a β-counter (Tri-Carb 1900 or TopCount 9206, Camberra Packard, Belgium, or any other equivalent counter). Data analysis is perfomed by a computerized non linear curve fitting method using a set of equations describing several binding models assuming populations of independent non-interacting receptors which obey to the law of mass.

[3] = 7-ring compounds, intraperitoneally 60 minutes before induction, inactive = inactive at 1.0E−03
[4] = 7-ring compounds, rat cerebral cortex membranes
[5] = 6-ring compounds, rat cerebral cortex membranes
[6] = 6-ring compounds, intraperitoneally 60 minutes before induction, inactive = inactive at 1.0E−03

T1 sequence (Q02563 whole entry): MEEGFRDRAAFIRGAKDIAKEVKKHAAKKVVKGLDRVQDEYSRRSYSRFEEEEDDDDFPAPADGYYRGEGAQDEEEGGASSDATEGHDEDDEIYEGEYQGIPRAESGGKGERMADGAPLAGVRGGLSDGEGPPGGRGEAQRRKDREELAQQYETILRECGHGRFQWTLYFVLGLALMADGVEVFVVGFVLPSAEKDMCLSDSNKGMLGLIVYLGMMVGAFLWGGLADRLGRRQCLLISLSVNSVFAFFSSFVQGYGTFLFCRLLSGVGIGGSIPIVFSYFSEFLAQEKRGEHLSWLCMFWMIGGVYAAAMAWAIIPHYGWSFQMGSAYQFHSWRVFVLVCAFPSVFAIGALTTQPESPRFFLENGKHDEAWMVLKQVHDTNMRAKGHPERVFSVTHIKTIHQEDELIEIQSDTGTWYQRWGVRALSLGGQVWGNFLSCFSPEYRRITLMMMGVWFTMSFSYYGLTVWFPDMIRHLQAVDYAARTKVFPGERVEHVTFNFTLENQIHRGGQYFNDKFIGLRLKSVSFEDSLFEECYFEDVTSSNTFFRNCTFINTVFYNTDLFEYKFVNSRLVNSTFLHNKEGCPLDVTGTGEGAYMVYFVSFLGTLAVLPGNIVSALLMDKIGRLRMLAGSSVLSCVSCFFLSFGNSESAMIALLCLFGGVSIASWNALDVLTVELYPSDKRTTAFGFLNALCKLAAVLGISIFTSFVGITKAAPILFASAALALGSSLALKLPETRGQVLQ

SMILES: CCC(C(N)=O)N1CCC(CI)CCC1=O (single isomer, unassigned) [Compound 18, 2-[5-(iodomethyl)-2-oxo-1-azepanyl]butanamide]
AUD CC (ED50 for inhibition of Clonic Convulsions in the Audiogenic seizure test) [1, 3]: 0.00013 mol/kg | Ki [2, 4]: 0.0316 to 0.316 µM

Ki [2, 5]: 0.0316 to 0.316 µM
SMILES: CCC(C(N)=O)N1CC(c2ccccc2)CCC1=O (stereo not shown) [Compound 11, 2-(2-oxo-5-phenyl-1-piperidinyl)butanamide]
AUD CC (ED50 for inhibition of Clonic Convulsions in the Audiogenic seizure test) ([1]; ip): 7e-05 mol/kg

Ki [2, 5]: 0.316 to 3.16 µM
SMILES: CC[C@@H](C(N)=O)N1CC(CN=[N+]=[N-])CCC1=O (stereo partly drawn) [Compound 8, (2S)-2-[5-(azidomethyl)-2-oxo-1-piperidinyl]butanamide]
AUD CC (ED50 for inhibition of Clonic Convulsions in the Audiogenic seizure test) ([1]; ip): 0.00028 mol/kg

SMILES: CC[C@H](C(N)=O)N1CCC(CI)CC1=O (stereo partly drawn) [Compound 16, (2R)-2-[4-(iodomethyl)-2-oxo-1-piperidinyl]butanamide]
AUD CC (ED50 for inhibition of Clonic Convulsions in the Audiogenic seizure test) [1, 6]: Inactive

SMILES: CCC(C(N)=O)N1CCC(CI)CCC1=O (single isomer, unassigned) [Compound 19, 2-[5-(iodomethyl)-2-oxo-1-azepanyl]butanamide]
AUD CC (ED50 for inhibition of Clonic Convulsions in the Audiogenic seizure test) [1, 3]: Inactive | Ki [2, 4]: > 3.16 µM

Ki [2, 5]: 0.0316 to 0.316 µM
SMILES: CC[C@@H](C(N)=O)N1CC(CN=[N+]=[N-])CCC1=O (stereo partly drawn) [Compound 7, (2S)-2-[5-(azidomethyl)-2-oxo-1-piperidinyl]butanamide]
AUD CC (ED50 for inhibition of Clonic Convulsions in the Audiogenic seizure test) ([1]; ip): 0.00012 mol/kg

SMILES: CC[C@@H](C(N)=O)N1CC(CI)CCC1=O (stereo partly drawn) [Compound 6, (2S)-2-[5-(iodomethyl)-2-oxo-1-piperidinyl]butanamide]
AUD CC (ED50 for inhibition of Clonic Convulsions in the Audiogenic seizure test) [1, 6]: 0.0002 mol/kg | Ki [2, 5]: 0.0316 to 0.316 µM

SMILES: CCC(C(N)=O)N1CCC(CI)CCC1=O (single isomer, unassigned) [Compound 17, 2-[5-(iodomethyl)-2-oxo-1-azepanyl]butanamide]
Ki [2, 4]: > 3.16 µM

SMILES: CC[C@H](C(N)=O)N1CCC(CI)CC1=O (stereo partly drawn) [Compound 14, (2R)-2-[4-(iodomethyl)-2-oxo-1-piperidinyl]butanamide]
AUD CC (ED50 for inhibition of Clonic Convulsions in the Audiogenic seizure test) [1, 6]: Inactive

SMILES: CC[C@@H](C(N)=O)N1CCC(CI)CC1=O (stereo partly drawn) [Compound 15, (2S)-2-[4-(iodomethyl)-2-oxo-1-piperidinyl]butanamide]
AUD CC (ED50 for inhibition of Clonic Convulsions in the Audiogenic seizure test) [1, 6]: 0.00025 mol/kg | PKi [2, 5]: +++ (+++ = 6.5 ≦ pKi < 7.5)

SMILES: CCC(C(N)=O)N1CC(c2ccccc2)CCC1=O (stereo not shown) [Compound 10, 2-(2-oxo-5-phenyl-1-piperidinyl)butanamide]
AUD CC (ED50 for inhibition of Clonic Convulsions in the Audiogenic seizure test) ([1]; ip): Inactive

SMILES: CC[C@@H](C(N)=O)N1CC(CI)CCC1=O (stereo partly drawn) [Compound 5, (2S)-2-[5-(iodomethyl)-2-oxo-1-piperidinyl]butanamide]
ED50 ([1]; ip, read-out: AUD CC (ED50 for inhibition of Clonic Convulsions in the Audiogenic seizure test), 6-ring compounds, intraperitoneally 60 minutes before induction, inactive = inactive at 1.0E−03): 160 µmol/kg | Ki [2, 5]: 0.316 to 3.16 µM

SMILES: CCC(C(N)=O)N1CCC(CI)CCC1=O (single isomer, unassigned) [Compound 20, 2-[5-(iodomethyl)-2-oxo-1-azepanyl]butanamide]
AUD CC (ED50 for inhibition of Clonic Convulsions in the Audiogenic seizure test) [1, 3]: 0.00056 mol/kg | Ki [2, 4]: 0.316 to 3.16 µM

SMILES: CCC(C(N)=O)N1CC(c2ccccc2)CCC1=O (stereo not shown) [Compound 12, 2-(2-oxo-5-phenyl-1-piperidinyl)butanamide]
AUD CC (ED50 for inhibition of Clonic Convulsions in the Audiogenic seizure test) ([1]; ip): Inactive

Ki ([2]; reference): 0.794 µM
SMILES: CC[C@@H](C(N)=O)N1CCCC1=O [levetiracetam, (S)-(−)-α-ethyl-2-oxo-1-pyrrolidineacetamide, reference compound]
ED50 ([1]; reference compound, clonic convulsions, audiogenic seizure test, read-out: ED50 CC): 180 µmol/kg

SMILES: CCC(C(N)=O)N1CC(c2ccccc2)CCC1=O (stereo not shown) [Compound 9, 2-(2-oxo-5-phenyl-1-piperidinyl)butanamide]
AUD CC (ED50 for inhibition of Clonic Convulsions in the Audiogenic seizure test) ([1]; ip): 0.00028 mol/kg

SMILES: CC[C@@H](C(N)=O)N1CCC(CI)CC1=O (stereo partly drawn) [Compound 13, (2S)-2-[4-(iodomethyl)-2-oxo-1-piperidinyl]butanamide]
AUD CC (ED50 for inhibition of Clonic Convulsions in the Audiogenic seizure test) [1, 6]: 0.00011 mol/kg | Ki [2, 5]: 0.0316 to 0.316 µM
